Common to all, as to assay type: cell-based
Assay [1] concerns Acinetobacter baumannii (ATCC 19606) biofilm. The experiment in a line: Biofilm inhibition, Mueller-Hinton broth, crystal violet. The following applies: A. baumannii ATCC 19606; for inhibition at 100 µM: Acinetobacter baumannii, ATCC19606, read-out: % Biofilm Inhibition at 100 μM. The procedure:
(§1) Biofilm Inhibition Protocol for A. baumannii (ATCC 19606): In a 96-well plate, ten two-fold serial dilutions of each compound tested were made from the highest concentration tested (100 μM) in a final volume of 100 μL in Mueller-Hinton broth (one column served as a blank). Each well was inoculated with ˜7×10^6 colony forming units per milliliter (corresponding to an OD600 of 0.01 prepared directly from an overnight culture). A lid was placed on the 96-well plate which was wrapped in suran wrap, placed in a humidifying chamber and incubated under static conditions at 37° C. for 24 hours. Following incubation, the media and planktonic bacteria were then removed from 96-well plates and the wells were then washed with water. The bacterial biofilms within the microtiter wells were stained with 200 μL of an aqueous 0.1% crystal violet solution that was allowed to stand for 10-20 minutes. The crystal violet stain was then removed, the wells were rinsed with water and dried. The crystal violet stain that remained on the inside of the wells (i.e., stained bacterial biofilm) on the inside of the wells was solubilized by the addition of 200 μL ethanol and absorbance was read at OD540 using a spectrophotometer. NOTE: The concentration range tested for each compound was 0.2-100 μM. Single data points for all compounds and DMSO controls were tested in two replicate rows in 96-well plates and corresponding absorbance readings were averaged for the quantification of planktonic growth and biofilm formation. Reported percent biofilm inhibition was determined by the comparison of compound treated wells (the average of the two replicate wells) versus vehicle control wells without compound following background subtraction (i.e., an empty, untreated well) and reported from 2 to 4 independent overnight cultures. DMSO was serially diluted at the same concentration as test compounds with a top concentration of 1% v/v.
(§2) The bromophenazines were also evaluated against the Gram-negative bacterium Acinetobacter baumannii in order to identify biofilm modulating small molecules against this emerging pathogen. Acinetobacter baumannii is notorious for its ability to persist as bacterial biofilms on hospital surfaces, giving rise to many multidrug-resistant nosocomial infections. Clinical isolates of A. baumannii have been identified that are resistant to every class of antibiotic clinically used. The bromophenazines were evaluated against Acinetobacter baumannii ATCC 19606 in biofilm inhibition assays. Bromophenazines were allowed to incubate in 96-well plates with Acinetobacter baumannii (˜7×10^6 CFUmL^−1 by adjusting an overnight culture to an OD600˜0.01) for 24 hours at 37° C. using Mueller-Hinton broth followed by spectrophometer readings of each plate to evaluate planktonic growth (OD600) and biofilm formation (OD540 after crystal violet stain of biofilms inside microtiter wells). […] This biofilm inhibition with activation of planktonic growth activity was dose-dependent with bromophenazine 17a (see FIG. 20).

The subject of assay [2] is Staphylococcus aureus (ATCC 25923) established biofilm. The experiment in a line: Biofilm dispersion, crystal violet staining. The following applies: for EC50: Staphylococcus aureus, read-out: Biofilm Dispersion EC50. The procedure: Biofilm Dispersion Protocol for Staphylococcus aureus (ATCC 25923): A single colony grown on tryptic soy agar (TSA) solid medium is amplified in 2 milliliters of tryptic soy broth (TSB) medium with 0.5% glucose to an OD600=0.8-1.0. The bacterial suspension was then diluted to 1×10^6 CFU/mL in TSB with 0.5% glucose. Sterile 96-well flat-bottomed polystyrene plates (0.1% gelatin coated overnight) were then filled with 200 μL of this bacterial suspension. The plates were then covered and incubated for 24 hours at 37° C. Following this, the contents of the wells were discarded and washed with 200 μL PBS (one time). Then serial, two-fold dilutions of bromophenazine small molecules in 200 μL PBS were delivered into each well. The plates were then covered and incubated for another 24 hours at room temperature. After this incubation time, the plates were gently washed with water three times (wells were rinsed by submerging the entire plates in a tub of cold, running tap water). Remaining biofilms were then fixed with 200 μL of methanol for 15 minutes. The plates were emptied and left to air dry. Upon drying, 100 μL of 1% crystal violet was added to each well for 10 minutes, then washed three times with water and again air dried. For quantitative assessment of biofilm formation 100 μL per well of bleaching solution (methanol:glacial acetic acid:water (v/v/v)=4:1:5 with rotary shaking for 1 hour) was used. Remaining biofilm was measured using a spectrophotometer (absorbance readings at 540 nm).
Further microdilution MIC assays were carried out for 11, 21-26, and 4a-29a against Staphylococcus aureus (ATCC 25923) in Luria Broth media (at ˜10^5 CFUmL^−1) to establish the level of growth inhibition for each compound (see FIGS. 5-13). […] Differentiation of a “biofilm inhibitor” from an antibacterial agent was carried out according to the ratio of MIC/IC50 of biofilm inhibition (based on crystal violet staining dose-response). […] Following the biofilm inhibition screen, bromophenazines 12a, 14a, 18a and 20a were evaluated in three independent biofilm inhibition experiments against Staphylococcus aureus to obtain replicate data. […] In addition to inhibiting biofilm formation, small molecules that are able to disperse or clear preexisting bacterial biofilms would be highly valuable. Six of the bromophenazine analogues (11, 4a, 8a, 23a, 27a, 28a; see Table 2 and FIGS. 18-19) were evaluated in biofilm dispersion assays by allowing Staphylococcus aureus biofilms to establish in 96-well plates for 24 hours at 37° C. After this incubation time, the media and planktonic cells were removed followed by a wash of the 96-well plates with water. Phosphate buffered saline (PBS) was then added to the 96-well plate followed by the addition of bromophenazine compounds (with 2-fold serial dilutions of each compound tested). The resulting plates were then allowed to incubate at room temperature for 24 hours and stained with crystal violet to quantify biofilm dispersion.

Assay [3] deals with Acinetobacter baumannii (ATCC 19606). Kind of assay: Planktonic growth (OD600) in biofilm inhibition assay. The following applies: for inhibition of growth at 100 µM: Acinetobacter baumannii, ATCC19606, 24 h, A. baumannii ATCC 19606, * = no growth inhibition at 200 μM, read-out: % Growth Inhibition at 100 μM. As to the method: as §1, with “Each” for “Biofilm Inhibition Protocol for A. baumannii (ATCC 19606): In a 96-well plate, ten two-fold serial dilutions of each compound tested were made from the highest concentration tested (100 μM) in a final volume of 100 μL in Mueller-Hinton broth (one column served as a blank). Each”, “NOTE: The concentration range tested for each compound was 0.2-100 μM.” left out
as §2

Setting [4] is: ATCC25923, S. aureus ATCC 25923, 24 h in PBS at room temperature.

Where two headings read alike, the source gives them in different places.

For orientation: inhibition means the change of the read-out against control, counted positive when it falls. Usually EC50 stands for the concentration at which the effect is half-maximal.

With `O=C(OCCc1ccccc1)Oc1c(Br)cc(Br)c2nc3ccccc3nc12` [Compound 8a], in assay [1], the Phenotype entry was “antibacterial” and the inhibition at 100 µM was found to be 97 ± 2%. Besides, the “Biofilm Dispersal Agent?” value in assay [2] (S. aureus ATCC 25923) is on record as “No”. The EC50 in assay [2] (setting [4]) was more than 100000 nM. Also, the inhibition of growth at 100 µM in assay [3] (100 μM) amounted to 76 ± 10%.
For the molecule `O=C(OCC(Cl)(Cl)Cl)Oc1c(Br)cc(Br)c2nc3ccccc3nc12` [Compound 27a], in assay [1], the Phenotype result is recorded as “antibacterial” and the inhibition at 100 µM came out at 99 ± 1%. Further, in assay [2] (S. aureus ATCC 25923), the “Biofilm Dispersal Agent?” value is listed as “No”. The EC50 in assay [2] (setting [4]) was more than 100000 nM. Further, the inhibition of growth at 100 µM in assay [3] (100 μM) worked out at 68 ± 4%.
Regarding `O=C(Oc1c(Br)cc(Br)c2nc3ccccc3nc12)c1ccc(Cl)cc1` [Compound 14a], the inhibition at 100 µM in assay [1] came out at 25 ± 3%. Moreover, the inhibition of growth at 100 µM in assay [3] (100 μM) amounted to 2 ± 3%.
On to `Oc1c(Br)cc(Br)c2nc3ccccc3nc12` [Compound 11, 2,4-Dibromophenazin-1-ol], for which, in assay [1], the Phenotype entry is recorded as “antibacterial” and the inhibition at 100 µM worked out at 98 ± 1%. Moreover, in assay [2] (S. aureus ATCC 25923), the “Biofilm Dispersal Agent?” value is reported as “Yes”. Besides, in assay [2] (ATCC25923, 24 h), the EC50 was determined as 29300 nM. Besides, in assay [3] (100 μM), the inhibition of growth at 100 µM is 86 ± 3%.
Turning to `O=C(Oc1c(Br)cc(Br)c2nc3ccccc3nc12)c1ccco1` [Compound 23a], in assay [1], the Phenotype result was “antibacterial” and the inhibition at 100 µM was found to be 86 ± 12%. In assay [2] (S. aureus ATCC 25923), the “Biofilm Dispersal Agent?” value is “Yes”. In assay [2] (setting [4]), the half-maximal effective concentration (EC50) stood at 1400 nM. The inhibition of growth at 100 µM in assay [3] (100 μM) was determined as 80 ± 1%.
On to `O=C(Oc1c(Br)cc(Br)c2nc3ccccc3nc12)c1ccccc1` [Compound 23, 2,4-Dibromophenazin-1-yl benzoate], for which, in assay [1], the inhibition at 100 µM stood at 51 ± 6%. Further, the “increase in planktonic growth” value in assay [3] (100 μM, OD600) is listed as approximately 15%. For the same molecule, in assay [3] (200 μM), the “planktonic growth inhibition at 200 μM” value is listed as “did not inhibit planktonic growth”. Also, the inhibition of growth at 100 µM in assay [3] (100 μM) is -13 ± 7%.
As to `O=C(CCCC(=O)Oc1c(Br)cc(Br)c2nc3ccccc3nc12)Oc1c(Br)cc(Br)c2nc3ccccc3nc12` [Compound 5a], the inhibition at 100 µM in assay [1] worked out at 59 ± 11%. The inhibition of growth at 100 µM in assay [3] (100 μM) is -1 ± 6%.
`CCC(=O)Oc1c(Br)cc(Br)c2nc3ccccc3nc12` [Compound 4a]: in assay [1], the Phenotype result is recorded as “antibacterial” and the inhibition at 100 µM was 99 ± 1%. Besides, the “Biofilm Dispersal Agent?” value in assay [2] (S. aureus ATCC 25923) is “Yes”. The EC50 in assay [2] (setting [4]) came to 2600 nM. The inhibition of growth at 100 µM in assay [3] (100 μM) is 82 ± 1%.
For the molecule `CC(=O)Oc1c(Br)cc(Br)c2nc3ccccc3nc12` [Compound 21, 2,4-Dibromophenazin-1-yl acetate], in assay [1], the Phenotype entry is “antibacterial” and the inhibition at 100 µM stood at 98 ± 1%. Moreover, the inhibition of growth at 100 µM in assay [3] (100 μM) stood at 83 ± 2%.
As for `O=C(Oc1c(Br)cc(Br)c2nc3ccccc3nc12)c1ccc(Br)cc1` [Compound 12a], in assay [1], the inhibition at 100 µM is 34 ± 4%. Moreover, in assay [3] (100 μM), the inhibition of growth at 100 µM was determined as 3 ± 3%.
With `O=C(Oc1c(Br)cc(Br)c2nc3ccccc3nc12)c1cccc([N+](=O)[O-])c1` [Compound 15a], the inhibition at 100 µM in assay [1] is 25 ± 6%. Moreover, the inhibition of growth at 100 µM in assay [3] (100 μM) was 3 ± 4%.
For `COC(=O)Oc1c(Br)cc(Br)c2nc3ccccc3nc12` [Compound 28a], in assay [1], the Phenotype result was “antibacterial” and the inhibition at 100 µM is 99 ± 1%. In addition, the “Biofilm Dispersal Agent?” value in assay [2] (S. aureus ATCC 25923) is “Yes”. For the same molecule, the 50% effective concentration (EC50) in assay [2] (setting [4]) turned out to be 2900 nM. Further, the inhibition of growth at 100 µM in assay [3] (100 μM) was determined as 92 ± 1%.
On to `Cc1ccc(C(=O)Oc2c(Br)cc(Br)c3nc4ccccc4nc23)cc1` [Compound 18a], for which, in assay [1], the Phenotype entry was “inactive” and the inhibition at 100 µM came out at 1 ± 5%. Also, the inhibition of growth at 100 µM in assay [3] (100 μM) was -6 ± 6%.

The values are drawn from US9856225B2, “Substituted phenazines as antimicrobial agents” (University of Florida Research Foundation, Incorporated, priority 2013, dated 2018).
